This passage reports inhibition and Activity results from ChEMBL document CHEMBL4041472, “Curacin E from the Brittle Star Ophiocoma scolopendrina” (J Nat Prod, 2016).

Experiment [1] concerns the target T1, NAD-dependent protein deacetylase sirtuin-1 (Homo sapiens) (UniProt Q96EB6).
T1 sequence (whole entry): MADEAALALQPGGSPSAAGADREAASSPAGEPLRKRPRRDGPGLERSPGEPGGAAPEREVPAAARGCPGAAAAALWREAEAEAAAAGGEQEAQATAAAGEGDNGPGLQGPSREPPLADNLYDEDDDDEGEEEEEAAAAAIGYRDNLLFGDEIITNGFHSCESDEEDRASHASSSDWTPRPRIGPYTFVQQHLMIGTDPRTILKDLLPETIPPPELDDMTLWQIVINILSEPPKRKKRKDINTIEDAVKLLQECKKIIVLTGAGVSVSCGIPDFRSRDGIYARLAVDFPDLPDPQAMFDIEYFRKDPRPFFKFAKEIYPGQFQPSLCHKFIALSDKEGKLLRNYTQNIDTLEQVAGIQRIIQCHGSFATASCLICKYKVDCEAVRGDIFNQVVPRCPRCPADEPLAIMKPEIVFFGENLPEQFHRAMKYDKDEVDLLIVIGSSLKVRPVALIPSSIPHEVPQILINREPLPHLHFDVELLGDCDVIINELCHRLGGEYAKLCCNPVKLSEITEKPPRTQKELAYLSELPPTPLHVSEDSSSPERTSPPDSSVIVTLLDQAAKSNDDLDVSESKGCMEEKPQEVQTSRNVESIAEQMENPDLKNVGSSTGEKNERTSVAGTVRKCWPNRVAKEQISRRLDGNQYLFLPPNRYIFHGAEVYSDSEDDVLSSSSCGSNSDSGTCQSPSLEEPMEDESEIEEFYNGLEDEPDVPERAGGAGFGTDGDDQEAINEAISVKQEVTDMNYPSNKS
Briefly: Inhibition of human SIRT1 expressed in Escherichia coli BL21(DE3) up to 50 uM using Ac-RHKK(Ac)-MCA as substrate after 60 mins in presence of NAD by fluorescence assay.

A further experiment deals with P388. Briefly: Cytotoxicity against mouse P388 cells assessed as reduction in cell viability at >= 20 nM after 96 hrs by MTT assay. In kind it is functional, cell-based.
The target in experiment [2] is T2, Protein deacetylase HDAC6 (Mus musculus) (UniProt Q9Z2V5).
T2 sequence (whole entry): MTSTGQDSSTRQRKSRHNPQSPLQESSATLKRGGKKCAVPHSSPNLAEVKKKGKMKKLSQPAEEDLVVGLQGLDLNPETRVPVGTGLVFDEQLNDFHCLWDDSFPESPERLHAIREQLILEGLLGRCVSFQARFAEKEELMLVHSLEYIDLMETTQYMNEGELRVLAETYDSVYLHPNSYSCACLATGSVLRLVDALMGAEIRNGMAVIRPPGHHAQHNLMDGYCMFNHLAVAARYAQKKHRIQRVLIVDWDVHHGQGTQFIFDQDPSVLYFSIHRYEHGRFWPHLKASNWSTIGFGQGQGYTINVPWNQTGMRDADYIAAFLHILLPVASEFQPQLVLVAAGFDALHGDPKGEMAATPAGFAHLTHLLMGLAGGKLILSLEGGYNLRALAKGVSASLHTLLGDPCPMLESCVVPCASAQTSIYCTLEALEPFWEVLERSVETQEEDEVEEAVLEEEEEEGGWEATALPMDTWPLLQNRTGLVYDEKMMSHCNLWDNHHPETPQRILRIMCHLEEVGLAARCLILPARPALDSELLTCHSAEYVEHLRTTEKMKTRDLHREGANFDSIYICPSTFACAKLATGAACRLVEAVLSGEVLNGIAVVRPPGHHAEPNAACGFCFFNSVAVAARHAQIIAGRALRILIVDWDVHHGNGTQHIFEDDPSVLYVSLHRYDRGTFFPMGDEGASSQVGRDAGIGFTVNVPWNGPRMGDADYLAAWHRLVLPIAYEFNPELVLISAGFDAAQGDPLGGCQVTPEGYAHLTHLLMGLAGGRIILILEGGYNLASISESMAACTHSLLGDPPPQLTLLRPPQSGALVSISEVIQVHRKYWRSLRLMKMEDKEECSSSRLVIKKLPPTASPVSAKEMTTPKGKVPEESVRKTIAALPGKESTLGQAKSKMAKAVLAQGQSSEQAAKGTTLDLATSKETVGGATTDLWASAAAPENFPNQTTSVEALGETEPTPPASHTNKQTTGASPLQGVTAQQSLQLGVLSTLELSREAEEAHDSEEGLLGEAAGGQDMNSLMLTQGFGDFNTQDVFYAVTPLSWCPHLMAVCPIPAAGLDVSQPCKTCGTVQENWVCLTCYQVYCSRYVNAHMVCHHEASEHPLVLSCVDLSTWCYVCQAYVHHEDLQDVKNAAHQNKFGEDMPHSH
Nature of the experiment: Inhibition of mouse FLAG-tagged HDAC6 expressed in human 293T cells coexpressing HDA2 up to 50 uM using Ac-KGLGK(Ac)-MCA as substrate after 30 mins by fluorescence assay. The format is cell-based.

Experiment [3] concerns the target Histone deacetylase 1 (Homo sapiens) (UniProt Q13547). Nature of the experiment: Inhibition of human FLAG-tagged HDAC1 expressed in human 293T cells up to 50 uM using Ac-KGLGK(Ac)-MCA as substrate after 30 mins by fluorescence assay.

Active and inactive are the calls of the source. The calls are words filed in the database; no cut-off is given here.

Sequence of Histone deacetylase 1 (Homo sapiens) (Q13547 whole entry): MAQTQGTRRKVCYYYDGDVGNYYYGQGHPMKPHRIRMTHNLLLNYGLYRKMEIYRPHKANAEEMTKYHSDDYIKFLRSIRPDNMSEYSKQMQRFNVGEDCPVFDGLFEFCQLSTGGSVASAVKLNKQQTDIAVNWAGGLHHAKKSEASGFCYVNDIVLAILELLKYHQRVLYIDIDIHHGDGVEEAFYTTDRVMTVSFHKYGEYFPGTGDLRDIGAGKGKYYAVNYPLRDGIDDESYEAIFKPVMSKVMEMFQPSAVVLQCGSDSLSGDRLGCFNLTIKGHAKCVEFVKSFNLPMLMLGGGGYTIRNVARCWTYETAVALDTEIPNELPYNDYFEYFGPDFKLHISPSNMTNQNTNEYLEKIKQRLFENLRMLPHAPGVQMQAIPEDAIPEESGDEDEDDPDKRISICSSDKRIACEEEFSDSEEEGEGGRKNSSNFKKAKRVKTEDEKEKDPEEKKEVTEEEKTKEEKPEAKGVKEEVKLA

Take `CCC(=O)CC(CC/C=C/C=C/CC/C=C\[C@@H]1CSC([C@@H]2C[C@@H]2C)=N1)OC` (some centres undefined): the inhibition result in experiment [1], in experiment [2] and in experiment [3] was “inactive” each time. For the same compound, in the experiment on P388, the result was Active.
